Tested on: SH-SY5Y cells
Test: Total ROS production (H2DCFDA) in SH-SY5Y cells under R/O
Type: cell-based
Conditions: 0.1, 1 and 10 µM; R/O 6 h
Experimental: ROS production was evaluated using the fluorescent dye H2DCFDA [20]. Briefly, after deacetylation inside the cell, the H2DCF derivative is able to react with oxygen-free radicals and is transformed into dichlorofluorescein, increasing its fluorescence intensity. SH-SH5Y cells were seeded in 96-well clear-bottom black plates 6 × 10^4 cells/well. After 24 h, cells were treated with compound 3i at the desired concentrations for 24 h. Treatments were then eliminated and the cells were loaded with H2DCFDA (10 μM) for 45 min. […] Fluorescence was evaluated in a fluorescence microplate reader (Fluostar optima; BMG Labtech, Ortenberg, Baden-Württemberg, Germany) at 485/520 excitation/emission wavelengths, respectively. […]
To further evaluate its mechanism of action, and considering the importance of exacerbated oxidative stress in neurodegenerative diseases, we evaluated its capacity to reduce free radical species production using the above-mentioned R/O toxic combination to generate ROS and measure the influence of 3i in the total ROS production by using the H2DCFDA dye, and also the specific superoxide production by using the selective dye dihydroetidium (DHE). […]

In the case of `COC(=O)C1=C(C)N(CCc2ccccc2)C(=O)/C1=C\c1ccc(O)c(O)c1` [Compound 3i, Methyl (Z)-4-(3,4-Dihydroxybenzylidene)-2-methyl-5-oxo-1-phenethyl-4,5-dihydro-1H-pyrrole-3-carboxylate], the “total ROS production (H2DCFDA)” value was “reduce ROS production almost to basal levels at all concentrations tested”.
